Values joined by “and” are separate entries in the source; they are usually repeats but may differ in a detail not shown here. Equal values may be shown once. Read-outs that look alike come from different tables or passages of the source.
Tests used:
Assay type in all cases: cell-based
[1] = toxicity analysis: uptake of neutral red dye; settings: triplicate cultures, ± standard deviation, read-out: Neutral Red Dye Uptake at Indicated Drug Concentration
Procedure: (§1) Toxicity analyses were performed in order to assess whether any observed antiviral effects are due to a general effect on cell viability. The method used was uptake of neutral red dye, a standard and widely used assay for cell viability in a variety of virus-host systems, including HSV and HIV.
(§2) Toxicity results were performed in 96-well flat bottomed tissue cultures plates. Cells for the toxicity analyses were cultured and treated with test compounds with the same schedule as used for the antiviral evaluations. Each compound was tested at four concentrations, each in triplicate cultures. Uptake of neutral red dye was used to determine the relative level of toxicity. The absorbance of internalized dye at […] (A510) was used for the quantitative analysis. Values are presented as a percentage of the average A510 values (±standard deviations) in nine separate cultures of untreated cells maintained on the same 96-well plate as the test compounds.

cell viability = assay: toxicity analysis: uptake of neutral red dye; settings: triplicate cultures, ± standard deviation
Procedure: as §1, §2

HBV = assay: antihepatitis viral activity: HBV virion DNA and intracellular HBV DNA in cultured cells (blot hybridization)
Procedure: Details of the assay methodology can be found in: Korba and Milman, Antiviral Res., 15:217 (1991) and Korba and Gerin, Antiviral Res. (1992) (in press). The antiviral evaluations were performed on two separate passages of cells. All wells, in all plates, were seeded at the same density and at the same time. Due to the inherent variations in the levels of both intracellular and extracellular HBV DNA, only depressions greater than 3.5-fold (for HBV virion DNA) or 3.0-fold (for HBV DNA replication intermediates) from the average levels for these HBV DNA forms in untreated cells are generally considered to be statistically significant [P<0.05]. The levels of integrated HBV DNA in each cellular DNA preparation (which remain constant on a per cell basis in these experiments) were used to calculate the levels of intracellular HBV DNA forms, thereby eliminating technical variations inherent in the blot hybridization assays.
Typical values for extracellular HBV virion DNA in untreated cells range from 50 to 100 pg/ml culture medium (average of approximately 76 pg/ml). Intracellular HBV DNA replication intermediates in untreated cells range from 50 to 100 pg/μg cell DNA) (average approximately 74 pg/μg cell DNA). In general, depressions in the levels of intracellular HBV DNA due to treatment with antiviral compounds are less pronounced, and occur more slowly, than depressions in the levels of HBV virion DNA).
In the following data table, data is shown concerning analysis of intracellular HBV DNA at 24 hours following the 9th day of treatment. DNA in each cell DNA preparation were used to calculate the levels of episomal 3.2 Kb HBV genomes (MONO.) and HBV DNA replication intermediates (RI). A "zero" indicates an undetectable level of HBV DNA, sensitivity cutoff was 0.1 pg/ml.

Nc1ccn([C@H]2CC[C@@H](CO)O2)c(=O)n1 [2',3'-ddC, 2,3'-dideoxycytosine]
viability ([1]; 1000 μg/ml): 12 ± 5%
viability ([1]; 3000 μg/ml): 40 ± 4%
Neutral Red Dye Uptake at Indicated Drug Concentration (cell viability; 10 μg/ml): 102 ± 2 % of Control
Neutral Red Dye Uptake at Indicated Drug Concentration (cell viability; 30 μg/ml): 101 ± 3 % of Control
effect on HBV DNA replication (in words) (HBV): significant depressions of HBV DNA replication
Intracellular HBV DNA MONO. (episomal 3.2 Kb HBV genomes) (HBV; 10 μM, 24 hours following the 9th day of treatment): 1.6 pg/μg CELL DNA and 1.8 pg/μg CELL DNA
HBV VIRION DNA DAY 0 (HBV; 10 μM, day 0): 63 pg/ml CULTURE MEDIUM and 87 pg/ml CULTURE MEDIUM and 82 pg/ml CULTURE MEDIUM
HBV VIRION DNA DAY 3 (HBV; 10 μM, day 3): 75 pg/ml CULTURE MEDIUM and 56 pg/ml CULTURE MEDIUM and 61 pg/ml CULTURE MEDIUM
HBV VIRION DNA DAY 6 (HBV; 10 μM, day 6): 26 pg/ml CULTURE MEDIUM
HBV VIRION DNA DAY 9 (HBV; 10 μM, day 9, zero = undetectable, cutoff 0.1 pg/ml): 2 pg/ml CULTURE MEDIUM and 1 pg/ml CULTURE MEDIUM
inhibition at 9 µM (HBV; Hepatitis B virus, read-out: depression of HBV RI relative to average levels in untreated cells): 90%

From patent publication US5316775A, “Method of treating hepatitis B infection” (Kremers-Urban Company, priority 1993, dated 1994)
